Measurements as given in PMC7613620, “Reaction hijacking of tyrosine tRNA synthetase as a whole-of-life-cycle antimalarial strategy” (Science (New York, N.Y.), 2022).
Read-outs that look alike come from different tables or passages of the source.

Experiments:
Format in all cases: cell-based, Plasmodium falciparum
[1] = tested on: protein translation in P. falciparum (Cam3.II-rev) schizonts; test: Protein translation assay (O-propargyl-puromycin incorporation); settings: read-out: IC50 (Translation)
Protocol: (§1) 723 then fixed for 10 minutes (4% formaldehyde/0.02% glutaraldehyde in PBS). The click reaction was
(§2) 724 performed for 1 h in the presence of CuSO4 (0.1 mM), THPTA (0.5 mM) and sodium ascorbate (5 mM) to
(§3) 725 bring about azide-alkyne cycloaddition to Alexa Fluor 488 azide (0.1 µM). Flow cytometry was performed
(§4) 726 using the FITC and Cy™5.5 channels to detect the Alexa Fluor 488 and PI, respectively.
(§5) 729 Cam 3.II_Rev (25) trophozoite-infected RBCs (25-30 h p.i.) were incubated with inhibitor for 3 h at 10%
(§6) 730 hematocrit and 5% parasitemia. The RBC pellet was washed 3 x in PBS + cOmplete. Cells were centrifuged
(§7) 731 at 380 x g for 5 min and the pelleted cells lysed by resuspension in PBS + 0.05% saponin for 5 min on ice.

[2] = tested on: P. falciparum (Cam3.II-rev) schizont stage; test: 3 h drug pulse viability assay; settings: read-out: IC50 (Viability)
Protocol: 553 Sigma-Aldrich) for 48-72 h. For drug pulse assays, tightly synchronized parasites (1-1.5% parasitemia,
554 0.2% final hematocrit) were added to the plates and incubated for 3 h. Drugs were removed and the
555 parasitemia assessed in the trophozoite stage of the next cycle.
557 Compounds were tested against a range of drug resistant field isolates and laboratory strains using a
558 modified [3H]-hypoxanthine incorporation assay, as previously reported (46). Field isolates 7G8, Cam3.1,
559 Dd2, K1, TM90C2B and NF54 were obtained from MR4 (www.beiresources.org).
561 Mammalian cell culture experiments
562 The HepG2 (Human hepatocyte carcinoma) cell line was procured from ATCC (American Type
563 Culture Collection, Manassas, USA; HB-8065) and viability assessed using Cell Titer-GLO luminescent
564 cell viability assay reagents (Promega, catalogue number: G7570) (47, 48). For the assay, 2000 cells/well
565 were plated in 384-well plates 24 h prior to the experiment and incubated at 37°C in a CO2 incubator. The
566 medium was removed and cells were treated with fresh medium containing either vehicle (0.5% DMSO)
567 or serially diluted test compounds or doxorubicin (1.3 nM to 25 µM) in a final volume of 50 µl/well and
568 further incubated for 72 h at 37°C in a CO2 incubator.
569 were treated with 5 µl of 1% Triton X-100 (final assay conc. 0.1%). Following incubation, 25 µl of medium
570 was discarded and 25 µl of Cell Titer-GLO reagent was added to each well and the plate was kept on a plate
571 shaker for 15 min at 25°C with shaking at 300 rpm. Luminescence signals were measured in a Spectramax
572 M5 reader (Molecular Devices).
574 H1650 is a human lung cancer derived ATG7-null cell line (49) that can be used to assess effects on targets
576 adenocarcinoma; bronchoalveolar carcinoma). Other cells lines used are: H460 (NCI-H460; human lung;
577 carcinoma; large cell lung cancer; ATCC: HTB-177); and HCT116 (human colon; colorectal carcinoma;
578 ATCC: CCL-247; Lot : 5056139). […]
580 inhibitors and cell viability was assessed by comparing the ATP content in compound-treated wells with […]

[3] = tested on: PfYRS knockdown line; test: Growth inhibition of aptamer-regulatable PfYRS knockdown line (luciferase, 72 h); settings: for IC50: Plasmodium falciparum, read-out: IC50 against the PfYRS knockdown line (control compounds)
Excerpt: 674 Generation and analysis of PfYRS knock-down transfectants
675 A conditional regulatable line for the cytosolic PfYRS (PF3D7_0807900) was generated by integrating the
676 gene regulatable system, TetR-DOZI-RNA aptamer module at the 3'-end of the target gene, in P. falciparum
677 parasites using CRISPR-Cas9 and homology-driven repair (55, 56). A line harbourbing an aptamer-
678 regulatable fluorescent protein (eYFP) integrated in the cg6 locus is used as the control (55). Transfection
679 into parasites was carried out by preloading RBCs with the donor vector as described previously (57).
680 Briefly, 50 μg of purified plasmid DNA was mixed with human RBCs and subjected to 8 square wave
681 electroporation pulses of 365 V for 1 ms each, separated by 0.1 s in a 0.2 cm cuvette. The plasmid DNA
682 preloaded cells were inoculated with NF54 expressing Cas9 and T7 RNA polymerase. […]
696 Stock solutions of ML901, DHA or borrelidin (Cayman Chemicals) were dispensed into 96-well U-bottom
697 BD Falcon™ plates and serially diluted in complete medium to yield final concentrations ranging from 20-
698 0.08 nM. Synchronous ring-stage YRScyt conditional knockdown line and the aptamer-regulatable control
699 line in varying aTc concentrations (high = 50 or 500 nM, low = 1 nM, and no aTc) were distributed into
700 the drug plate. Lowest drug treatment and a lethal dose of chloroquine (200 nM) served as reference
701 controls. Growth inhibition was analysed after 72 h using the Renilla-Glo(R) Luciferase Assay System (ref
702 no E2750 Promega) and the GloMax® Discover Multimode Microplate Reader (Promega), and IC50 values
703 were obtained from corrected dose-response curves using GraphPad Prism (version 8; GraphPad Software). […]
706 CRISPR/Cas9 was used to generate parasites encoding the S234C mutation in exon 2 of PfYRS, as shown
707 in Suppl Figure 6. Two guide RNAs (gRNA1: […] and gRNA2:
708 […]) were selected using Benchling (benchling.com), and cloned into the
709 pDC2-coCas9-gRNA plasmid essentially as described previously (58). A donor template of 645 bp,
710 encompassing the majority of the 708 bp exon 2, was synthesized (ThermoFisher) and cloned into the
711 AatII/EcoRI sites of both the pDC2-coCas9-gRNA1 and pDC2-coCas9-gRNA2 plasmids. In addition to
712 the TCC>TGC (S234C) mutation, additional silent shield mutations were introduced to prevent gRNA-
713 Cas9 complex binding, as shown in Suppl Figure 6. Ring-stage P. falciparum parasites (Dd2 strain) at 10%
714 parasitemia (150 µL of packed cells) were transfected with 50 µg of plasmid DNA using a BioRad Gene
715 Pulser II (310 V, 950 µF), and selected with 5 nM WR99210 (Jacobus Pharmaceuticals) for 8 days, after
716 which culture was continued without drug pressure until transfectants were obtained. Clones of the
717 PfYRSS234C mutant parasites were isolated by limiting dilution and verified by Sanger sequencing.
719 Protein translation assay
720 P. falciparum Cam 3.II_Rev (25) schizont- (43-48 h p.i.) infected RBCs were pre-incubated with inhibitor
Using a modification of a published procedure (14), the
722 cells were labelled with O-propargyl-puromycin (OPP; 4 µM) for 1 h, washed 3x (PBS +3% serum) and
as §1, §2, §3, §4, §5, §6, §7

`CC1(C)N=C(N)N=C(N)N1OCCCOc1cc(Cl)c(Cl)cc1Cl` [WR99210] was tested, and the IC50 ([1]; schizont stage Cam3.II-rev, 1 h pre-incubation then OPP incorporation over next 2 h) was > 1000 nM and the IC50 ([2]; schizont stage Cam3.II-rev, 3 h exposure, viability at trophozoite stage of next cycle) was 1.9 nM.
`C[C@@H]1C[C@H](C)C[C@H](C)[C@@H](O)CC(=O)O[C@H]([C@@H]2CCC[C@H]2C(=O)O)C/C=C/C=C(/C#N)[C@H](O)[C@@H](C)C1` [borrelidin] showed an IC50 ([3]; high aTc (500 nM)) of 0.07 nM, an IC50 ([3]; low aTc (1 nM)) of 0.07 ± 0.01 nM and an IC50 ([3]; no aTc) of 0.07 ± 0.01 nM. The “Fold change in IC50 (high aTc/ no aTc), PfYRS knockdown line (control compounds)” value ([3]; high aTc 500 nM) was “no change”.
In the case of `C[C@@H]1C[C@@H]([C@H](O)CC2CC(=O)NC(=O)C2)C(=O)[C@@H](C)C1` [cycloheximide], the IC50 ([1]; Plasmodium falciparum) is reported as 2000 nM and the IC50 ([2]; Plasmodium falciparum, 3 h) is reported as 3200 nM.
